# How the values were obtained:
# Type in all cases: functional
# [1] = test system: Bursaphelenchus xylophilus; assay: Nematicidal activity against Bursaphelenchus xylophilus at 200 ug/ml after 24 hrs
# [2] = test system: Bursaphelenchus xylophilus; assay: Nematicidal activity against Bursaphelenchus xylophilus at 200 ug/ml after 48 hrs
# [3] = test system: Bursaphelenchus xylophilus; assay: Nematicidal activity against Bursaphelenchus xylophilus at 100 ug/ml after 24 hrs
# [4] = test system: Bursaphelenchus xylophilus; assay: Nematicidal activity against Bursaphelenchus xylophilus at 100 ug/ml after 48 hrs
SMILES,Activity [1] [%],Activity [2] [%],Activity [3] [%],Activity [4] [%]
Oc1ccc2c3c1[C@@H](O)[C@H]1O[C@H]1[C@]31Oc3cccc4c3[C@](O2)(O1)[C@H](O)C[C@@H]4O,54.8,62.3,25.6,35.5
O=C1CC[C@]23Oc4ccc(O)c5c4[C@](Oc4cccc1c42)(O3)[C@@H]1O[C@@H]1[C@@H]5O,47.9,60.7,33.7,44.1
O=C1c2c(O)ccc3c2[C@@]2(Oc4cccc5c4[C@](O3)(O2)[C@H](O)C[C@@H]5O)[C@@H]2O[C@H]12,52.3,64.2,27.8,39.6
O=C1CC[C@H](O)c2cc(O)cc(O)c21,51.2,57.3,23.7,46.7
O=C1C[C@@H](O)[C@]23Oc4ccc(O)c5c4[C@](Oc4cccc1c42)(O3)[C@@H]1O[C@@H]1[C@@H]5O,56.7,70.3,45.2,66.4
"O=C1CCC(O)c2cccc(O)c21 (racemic) [4,8-DIHYDROXY-1-TETRALONE]",53.4,58.3,34.7,43.8
CO[C@@H]1CC(=O)c2cccc3c2[C@@]12Oc1ccc(O)c4c1[C@](O3)(O2)[C@@H]1O[C@@H]1[C@@H]4O [PREUSSOMERIN C],59.3,78.6,50.2,67.4
O=C1C=C[C@]23Oc4ccc(O)c5c4[C@](Oc4cccc1c42)(O3)[C@@H]1O[C@@H]1[C@@H]5O [PREUSSOMERIN D],60.4,83.7,53.8,76.5

# Source: ChEMBL document CHEMBL1157398, “Ymf 1029A-E, preussomerin analogues from the fresh-water-derived fungus YMF 1.01029” (2008)
